This assay concerns the target Squalene monooxygenase (Rattus norvegicus, UniProt P52020). Put plainly: Compound was evaluated for its inhibitory activity against recombinant rat SE(squalene epoxidase).

By IC50 is commonly meant the midpoint of a concentration-inhibition curve.

Sequence of Squalene monooxygenase (P52020 whole entry): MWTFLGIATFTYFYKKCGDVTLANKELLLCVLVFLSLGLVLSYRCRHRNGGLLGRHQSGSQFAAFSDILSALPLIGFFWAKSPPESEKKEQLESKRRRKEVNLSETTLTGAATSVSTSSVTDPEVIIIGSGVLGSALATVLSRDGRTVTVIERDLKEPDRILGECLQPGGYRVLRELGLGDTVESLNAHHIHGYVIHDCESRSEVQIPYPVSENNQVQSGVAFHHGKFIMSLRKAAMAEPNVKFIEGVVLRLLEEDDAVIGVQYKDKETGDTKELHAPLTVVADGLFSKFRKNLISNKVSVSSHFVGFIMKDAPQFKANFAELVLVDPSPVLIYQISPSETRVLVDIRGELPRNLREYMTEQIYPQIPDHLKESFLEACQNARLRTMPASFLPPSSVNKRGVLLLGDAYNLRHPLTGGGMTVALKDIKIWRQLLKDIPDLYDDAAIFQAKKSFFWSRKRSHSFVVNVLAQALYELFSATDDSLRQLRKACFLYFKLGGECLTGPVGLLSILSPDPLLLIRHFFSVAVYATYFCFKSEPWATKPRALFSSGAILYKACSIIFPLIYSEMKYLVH

Turning to `CC(C)=CCC/C(C)=C/CC/C(C)=C/CC/C=C(\C)CC/C=C(\C)CCCOC(=O)c1cc(O)c(O)c(O)c1`, the 50% inhibitory concentration (IC50) turned out to be 5.1 µM.

On to `O=C(OCCCCCCCCc1ccccc1)c1cc(O)c(O)c(O)c1`, for which the IC50 is 12.5 µM.

Turning to `CC(C)=CCC/C(C)=C/CC/C(C)=C/CC/C(C)=C/COC(=O)c1cc(O)c(O)c(O)c1`, the half-inhibitory concentration (IC50) is 4.5 µM.

For the molecule `O=C(OCCCCCCc1ccccc1)c1cc(O)c(O)c(O)c1`, the IC50 is 11.9 µM.

Regarding `O=C(OCCCCCCCCCCc1ccccc1)c1cc(O)c(O)c(O)c1`, the IC50 stood at 15.3 µM.

With `O=C(OCCCCc1ccccc1)c1cc(O)c(O)c(O)c1`, the IC50 was found to be 61.3 µM.

As for `CC(C)=CCC/C(C)=C/CC/C(C)=C/COC(=O)c1cc(O)c(O)c(O)c1`, the IC50 is 1.5 µM.

For the molecule `CCCCCCCCCCCCOC(=O)c1cc(O)c(O)c(O)c1` [DODECYL GALLATE], the IC50 came to 0.061 µM.

As to `O=C(O[C@@H]1Cc2c(O)cc(O)cc2O[C@@H]1c1cc(O)c(O)c(O)c1)c1cc(O)c(O)c(O)c1` [EPIGALOCATECHIN GALLATE], the IC50 was 0.69 µM.

For `CC(C)=CCC/C(C)=C/COC(=O)c1cc(O)c(O)c(O)c1` [Geranyl gallate], the 50% inhibitory concentration (IC50) turned out to be 12.5 µM.

The values above are taken from ChEMBL document CHEMBL1132810, “Inhibition of vertebrate squalene epoxidase by isoprenyl gallates and phenylalkyl gallates” (Bioorg Med Chem Lett, 2000).
